Measured values published in patent publication US11040052B2, “Methods and pharmaceutical compositions for modulating autophagy in a subject in need thereof” (INSERM (INSTITUT NATIONAL DE LA SANTE ET DE LA RECHERCHE …, priority 2013, dated 2021).
“Also recorded” adds a separate entry of the source.

Assays:
cellular ATP levels = test: Cellular ATP levels; format: cell-based
EP300 = test: Acetylation of EP300 K1499 in starved cells; format: cell-based; conditions: nutrient-free conditions
[1] = system: cytoplasmic protein acetylation; test: Immunofluorescence of cytoplasmic acetyl-lysine-containing proteins; format: cell-based, human; conditions: for cytoplasmic protein acetylation in starved cells: nutrient-depleted (starved) cells in vitro; for cytoplasmic protein acetylation: cells kept in rich medium
Experimental: Cells were fixed with 4% PFA for 15 min at room temperature, and permeabilized with 0.1% Triton X-100 for 10 min, except for staining of cytoplasmic acetyl-lysine-containing proteins, in which any permeabilization step further than PFA fixation was avoided. Non-specific binding sites were blocked with 5% bovine serum in PBS, followed by staining with primary antibodies overnight at 4° C. Development was carried out with appropriate AlexaFluor™ conjugates (Molecular Probes-Invitrogen). In the case of cytoplasmic acetyl-lysine staining, an additional step of blocking using anti-acetylated-tubulin antibody (1:200) was applied. Ten μM Hoechst 33342 (Molecular Probes-Invitrogen) was employed for nuclear counterstaining. Fluorescence and confocal fluorescence microscopy assessments were performed on an IRE2 microscope (Lcica Microsystems) equipped with a DC300F camera and with an LSM 510 microscope (Carl Zeiss, Jena, Germany), respectively.
U2OS, HeLa or H4 cells stably expressing GFP-LC3 were seeded in 96-well imaging plates (BD Falcon, Sparks, USA) 24 h before stimulation. Cells were treated with the indicated agents for 4 h. Subsequently, cells were fixed with 4% PFA and counterstained with 10 μM Hoechst 33342. Images were acquired using a BD pathway 855 automated microscope (BD Imaging Systems, San Jose, USA) equipped with a 40× objective (Olympus, Center Valley, USA) coupled to a robotized Twister II plate handler (Caliper Life Sciences, Hopkinton, USA). Images were analyzed for the presence of GFP-LC3 puncta in the cytoplasm by means of the BD Attovision software (BD Imaging Systems). Cell surfaces were segmented and divided into cytoplasmic and nuclear regions according to manufacturer standard proceedings. RB 2×2 and Marr-Hildreth algorithms were used to recognize cytoplasmic GFP-LC3 positive dots. Statistical analyses were implemented on the R software (http://www.r-project.org/). For quantitative analyses of protein acetylation, cell surfaces were segmented into cytoplasm and nuclei regions, and staining intensity of each individual cell was measured for statistical analysis.
Cells were fixed with 4% PFA for 15 min at room temperature, and permeabilized with 0.1% Triton X-100 for 10 min. For cytoplasmic Acetyl Lysine staining, we proceeded as described in 35. Non-specific binding sites were blocked with 5% bovine serum albumin in PBS, followed by incubation with primary antibodies overnight at 4° C. After 1 hour incubation, appropriate Alexa-conjugated Fluorophores (Invitrogen) were used for antigen detection. Ten μM Hoechst 33342 (Molecular Probes-Invitrogen, Eugene, USA) was employed for nuclear counterstaining Fluorescence wide-field and confocal microscopyassessments were performed on an DM IRE2 microscope (Leica Microsystems, Wetzlar, Germany) equipped with a DC300F camera and with an LSM 510 microscope (Carl Zeiss, Jena, Germany), respectively.
U2OS and H4 cells stably expressing GFP-LC3 were seeded in 96-well or 384-well imaging plates (BD Falcon, Sparks, USA). 24 h before stimulation, ells were treated with the indicated agents for 6 hours in absence of lysososomal ATPase inhibitors and for 3 hours in presence of Bafilomycin A1. Subsequently, cells were fixed with 4% PFA and counterstained with 10 μM Hoechst 33342. Images were acquired using a BD pathway 855 automated microscope (BD Imaging Systems, San Jose, USA) equipped with a 40× objective (Olympus, Center Valley, USA) coupled to a robotized Twister II plate handler (Caliper Life Sciences, Hopkinton, USA). […]

[2] = system: turnover of long-lived proteins; test: Turnover of long-lived proteins; format: cell-based, human; conditions: for starvation-induced turnover of long-lived proteins: starved cells
[3] = system: cytoplasts of U2OS cells stably expressing GFP-LC3; test: Autophagic flux in cytoplasts (enucleated GFP-LC3 cells); format: cell-based, human; conditions: presence of BafA1, compared with nucleated control cells
Experimental: U2OS cells stably expressing GFP-LC3 were trypsinized and incubated in 3 ml of complete medium supplemented with […] cytochalasin B for 45 min at 37° C. This cell suspension was layered onto a discontinuous Ficoll density gradient (3 mL of 55%, 1 mL of 90%, and 3 mL of 100% Ficoll-Paques; GE Healthcare) in complete medium containing […] cytochalasin B. Gradients were prepared in ultracentrifuge tubes and pre-equilibrated at 37° C. in a CO2 incubator overnight. Gradients containing cell suspensions were centrifugated in a prewarmed rotor (SW41; Beck-man Coulter) at 30,000 g for 30 min at 32° C. The cytoplast-enriched fraction was collected from the interface between 55 and 90% Ficoll layers, washed in complete medium, and incubated for 4 h at 37° C. before treatments.

Row | Structure (SMILES) | cellular ATP levels in starved cells (cellular ATP levels) | starvation-induced deacetylation of the K1499 residue in EP300 (EP300) | cytoplasmic protein acetylation in starved cells [1] | cytoplasmic protein acetylation [1] | autophagic flux in cytoplasts [3] | further results
1 | COC(=O)CCC(=O)C(=O)OC [DMKG, dimethyl-α-ketoglutarate] | induced a decrease in cellular ATP | could be avoided | increased cellular AcCoA levels (E) and cytoplasmic protein acetylation; also recorded: maintained high AcCoA and cytoplasmic acetylation levels | – | – | –
2 | CC(C)CC(=O)C(=O)O [KIC, ketoisocaproic acid] | induced a decrease in cellular ATP | could be avoided | increase in AcCoA levels (A) and cytoplasmic protein acetylation; also recorded: sufficient to avoid AcCoA depletion and protein deacetylation | – | – | starvation-induced turnover of long-lived proteins [2]: inhibited the starvation-induced increase in autophagic flux and turnover of long-lived proteins
3 | CC(C)C[C@H](N)C(=O)O [leucine] | – | – | sufficient to maintain high AcCoA levels and cytoplasmic protein acetylation | – | – | –
4 | O=C(O)CC(O)(C(=O)O)C(O)C(=O)O (stereo not drawn) [HC, hydroxycitrate] | – | – | – | reduced both AcCoA levels (E, I) and cytoplasmic protein acetylation; also recorded: induced cytosolic protein deacetylation; also recorded: induced cytoplasmic protein deacetylation | stimulated autophagy in cytoplasts as efficiently as in nucleated control cells; also recorded: stimulated autophagic flux in cytoplasts as efficiently as in nucleated control cells | cytoplasmic protein acetylation ([1]; listed as Hydroxycitrate): reduces cytoplasmic; also recorded: reduced cytoplasmic protein acetylation
5 | O=C(O)c1cccc(C(=O)O)c1C(=O)O [BTC, 1,2,3-benzenetricarboxylate] | – | – | – | reduced both AcCoA levels (A) and cytoplasmic protein acetylation; also recorded: protein deacetylation | stimulated autophagy in cytoplasts as efficiently as in nucleated control cells; also recorded: stimulated autophagic flux in cytoplasts as efficiently as in nucleated control cells | –
6 | N#CC(=Cc1cn(-c2ccccc2)c2ccccc12)C(=O)O [UK5099, 2-Cyano-3-(1-phenyl-1H-indol-3-yl)-2-propenoic acid] | – | – | – | reduced both AcCoA levels (A, E) and cytoplasmic protein acetylation; also recorded: deacetylation of cytoplasmic proteins | stimulated autophagy in cytoplasts as efficiently as in nucleated control cells; also recorded: stimulated autophagic flux in cytoplasts as efficiently as in nucleated control cells | cellular ATP levels (cellular ATP levels; cells in rich medium): without reducing ATP; autophagy-dependent turnover of long-lived proteins ([2]; cells in rich medium): increased the autophagy-dependent turnover of long-lived proteins
7 | O=C(O)CCCCC1CCSS1 (stereo not drawn) [LA, lipoic acid] | induced a decrease in cellular ATP | could be avoided | increased both cellular AcCoA levels (K) and cytoplasmic protein acetylation; also recorded: maintain high AcCoA and cytoplasmic acetylation levels | – | – | starvation-induced turnover of long-lived proteins [2]: blunted
